According to patent US12414955B2 (priority 2020, dated 2025):
Where “and” joins values, the source holds several entries; their conditions need not be identical. Equal entries are not always repeated.

Tests used:
in vitro [1] = settings: African green monkey
SARS CoV-2 = SARS CoV-2 cytopathic effect (CPE) assay in Vero E6 host cells; assay type: cell-based, USA_WA1/2020 SARS CoV-2
SARS-CoV-2 = assay: microbe, parasite or virus in culture; assay type: cell-based; settings: Severe acute respiratory syndrome coronavirus 2, A549, 48 h; read-out: IC50 for inhibition of SARS CoV-2 mediated cell killing
in vitro [2] = settings: African green monkey; remark: listed apart in the source
SARS CoV-1 = assay: organism not typed; assay type: cell-based, Toronto 2 SARS CoV-1; settings: for average plate ZIP synergy score / maximum ZIP synergy score / concentrations at which synergy was realized: SARS CoV-1 CPE assay
[3] = Compound 1 in combination with hydroxychloroquine (HCQ)
[4] = Compound 1 in combination with remdesivir
[5] = combination of Compound 1 and hydroxychloroquine (HCQ)
[6] = combination of Compound 1 and remdesivir

Row | Compound | CC50 (in vitro [1]) | IC50 (SARS-CoV-2) | CC50 (in vitro [2]) | further results
1 | C[C@@H]1COCCN1c1cc(N2CCCC[C@@H]2C(F)(F)F)[nH]c(=O)c1 [Compound 1] | > 30 µM | 0.108 µM | > 30 µM | average plate ZIP synergy score (SARS CoV-2): 5.523 and 8.345; maximum ZIP synergy score (SARS CoV-2): 32.8 and 40.8; average plate ZIP synergy score (SARS CoV-1; [3]): 13.413; maximum ZIP synergy score (SARS CoV-1; [3]): 37.77; average plate ZIP synergy score (SARS CoV-1; [4]): 8.304; maximum ZIP synergy score (SARS CoV-1; [4]): 33.66; IC50 (SARS CoV-1; Vero C1008, 72 h, read-out: IC50 for inhibition of SARS CoV-1 mediated cell killing): 0.65 µM; concentrations at which synergy was realized (SARS CoV-1; [5]): ≤ 1.9 µM; concentrations at which synergy was realized (SARS CoV-1; [6]): ≤ 1.9 µM
2 | C[C@@H]1COCCN1c1cc(N2CCCC[C@@H]2c2ccccc2)[nH]c(=O)c1 [Compound 2] | > 30 µM | 2.03 µM | > 30 µM | –
3 | C[C@@H]1COCCN1c1cc(N2CCC[C@@H]2C(F)(F)F)[nH]c(=O)c1 [Compound 3] | > 30 µM | > 30 µM | > 30 µM | –
4 | C[C@@H]1COCCN1c1cc(N2CCOC[C@H]2C(F)(F)F)[nH]c(=O)c1 [Compound 4] | > 30 µM | 0.52 µM | > 30 µM | –
5 | C[C@@H]1COCCN1c1cc(N2CCOCC23CCC3)[nH]c(=O)c1 [Compound 5] | > 10 µM | 7.73 µM | > 10 µM | –
6 | CCN(CCO)CCCC(C)Nc1ccnc2cc(Cl)ccc12 (stereo not drawn) [HCQ, hydroxychloroquine, reference compound] | – | – | – | concentrations at which synergy was realized (SARS CoV-1; [5]): > 0.1 µM
7 | CCC(CC)COC(=O)[C@H](C)N[P@](=O)(OC[C@H]1O[C@@](C#N)(c2ccc3c(N)ncnn23)[C@H](O)[C@@H]1O)Oc1ccccc1 [Remdesivir, remdesivir, reference compound] | – | – | – | concentrations at which synergy was realized (SARS CoV-2): above 0.5 μM; concentrations at which synergy was realized (SARS CoV-1; [6]): > 1.9 µM
